Assay results published in patent US4551547A, “Biocidal 2-aryl-1, 3-cyclopentanedione enol ester compounds” (Union Carbide Corporation, priority 1983, dated 1985).
Values after ≈ are worked out from the molar mass of the structure shown.

How the values were obtained:
[1] = test system: two-spotted mite (adults and nymphal stages); experiment: Mite Foliage Spray Test (adults and nymphs); assay type: in vivo, Tetranychus urticae (Koch); set-up: key to Miticidal, Adult: A: Excellent Control; B: Partial Control; No Control; conditions: for Miticidal, Adult: Table II, mortality count after four days; for LC50: Tetranychus urticae, foliar, Table III, ppm required for a 50 percent kill of mites, read-out: Miticidal LD50, Adult
Experimental: Suspensions of the test compounds were prepared by dissolving one gram of compound in 50 milliliters of acetone in which had been dissolved 0.1 gram (10 percent of the weight of compound) of an alkylphenoxyethanol sufactant, as an emulsifying or dispersing agent. The resulting solution was mixed into 160 milliliters of water to give roughly 200 milliliters of a suspension containing the compound in finely divided form. The thus prepared stock suspension contained 0.5 percent by weight of compound. The test concentrations employed in the tests described below were obtained by diluting the stock suspension with water. The test procedures were as follows: Adults and nymphal stages of the two-spotted mite (Tetranychus urticae (Koch)), reared on Tender-green beam plants at 80±5° F. and 50±5 percent relative humidity, were the tests organisms. Infested leaves from a stock culture were placed of the primary leaves of two bean plants six to eight inches in height, growing in a two-and-a-half inch clay pot. 150-200 Mites, a sufficient number for testing, transferred from the excised leaves to the fresh plants in a period of twenty-four hours. Following the twenty-four hour transfer period, the excised leaves were removed from the infested plants. The test compounds were formulated by diluting the stock suspension with water to provide suspensions containing the desired amount of test compound per million parts of final formulation. The potted plants (one pot per compound) were placed on a revolving turntable and sprayed with 100-110 milliliters of tests compound formulation by use of a DeVilbis spray gun set at 40 psi, air pressure. This application, which lasted 30 seconds, was sufficient to wet the plants to run-off. As a control, 100-110 milliliters of a water solution containing acetone and emulsifier in the same concentrations as the test compound formulation, but containing no test compound, were also sprayed on infested plants. The sprayed plants were held at 80±5° F. and 50±5 percent relative humidity for four days, after which, a mortality count of motile forms was made on the leaves of the test plants. Any individual which was capable of locomotion upon prodding was considered living. In these tests the pesticidal activity of the compounds against mites and mite eggs was rated as follows: Tests were conducted in accordance with the procedures given at pages 17 to 21 supra. The results are expressed in the same manner as used in Table II, except with respect to miticidal activity. For mite adult and mite egg comparison purposes, results are given in parts per million (ppm) required for a 50 percent kill of mites or eggs, respectively.

Cotton = experiment: Post-emergent herbicidal test, cotton; assay type: in vivo; set-up: key: 1: no perceptible injury; 2: intermediate degrees of injury; 3: intermediate degrees of injury; 4: intermediate degrees of injury; 5: the plant was dead; conditions: 2500 parts per million, after ten days; for Post-emergent Herbicidal, Cotton: Table II; for Post Emergent Herbicidal, Cotton: Table III
Experimental: (§1) Suspensions of the test compounds were prepared by dissolving one gram of compound in 50 milliliters of acetone in which had been dissolved 0.1 gram (10 percent of the weight of compound) of an alkylphenoxyethanol sufactant, as an emulsifying or dispersing agent. The resulting solution was mixed into 160 milliliters of water to give roughly 200 milliliters of a suspension containing the compound in finely divided form. The thus prepared stock suspension contained 0.5 percent by weight of compound. The test concentrations employed in the tests described below were obtained by diluting the stock suspension with water. The test procedures were as follows:
Experiments were also conducted to determine the phytotoxicity of representative compositions with respect to healthy fresh plants. Solutions of the compounds were prepared as described above to provide a concentration of 2500 parts per million of the test compound. The test plants were sprayed in accordance with the procedure described above for the Mite Foliage Spray Test so as to deliver approximately 100 milliliters of test solutions to the leaves of each plant tested. The sprayed plants and controls were set aside for approximately one hour to allow the solutions to dry and were then placed in the greenhouse. After ten days the plants were visually inspected to determine the extent of foliage injury. A rating of 1 indicates no perceptible injury; 5 indicates the plant was dead and ratings of 2, 3 and 4 indicate intermediate degrees of injury based upon the number and extent to which leaves were injured.

Perennial rye grass = experiment: Preliminary herbicide seed germination test (pre-emergent), perennial rye grass; assay type: in vivo, Solium perenne; set-up: key: 5: no seedling emerged; 4: few seedlings emerged and/or very severe stunting; 3: moderate reduction in stand and/or moderate stunting.; 2: very slight reduction in stand and/or slight stunting; 1: no injury, seedlings appear no different with respect to stand or growth than untreated controls; conditions: ten to twelve days after application
Experimental: as §1
The following seeds were used in this test:
Perennial rye grass--Solium perenne
Two […] mixtures were prepared as follows:
Each of the above mixtures was rolled separately in 5 gallon containers for approximately one-half hour on ball mill to insure uniform mixing of seeds and soil. For each compound four 3-inch pots were filled with soil to within 11/2 inches of top of pots. To two of these pots were added 70 cc. of Mixture I. To the remaining 2 pots were added 70 cc. of Mixture II. The seed-soil mixture was tamped firmly, and the pots were removed to the greenhouse and watered lightly. About 2 hours after planting, 25 milliliters of the test formulation were added to one pot containing Mixture I and one pot containing Mixture II. An equal volume of a water solution containing acetone and an emulsifier in the same concentration as the herbicidal mixture but without the candidate herbicide was also added to each of the soil-seed mixtures. These pots are used as check or control units. The test compounds were formulated by diluting the stock suspension with water to obtain the desired concentration of the compound in parts per million of the final formulation. Each compound was tested at the same concentration. […] Ratings were made according to the following designations: […]

SMILES | Miticidal, Adult [1] | Post-emergent Herbicidal, Cotton (Cotton) | Pre-emergent Herbicidal, Rye (Perennial rye grass; Table II) | LC50 [1] | Post Emergent Herbicidal, Cotton (Cotton) | Pre-emergent Herbicidal, Rye (Perennial rye grass; Table III)
CCCCC(CC)C(=O)OC1=C(c2ccc(C)cc2C)C(=O)C2CCCCC12 (stereo not drawn) [Compound 26, 3-(2-ethylhexanoyloxy)-2-(2',4'-dimethylphenyl)-4,5,6,7,8,9-hexahydro-2-indenone] | A | 2 | 5 |  |  | 
CCCCCCCCCCCCCCCC(=O)OC1=C(c2cc(C)ccc2C)C(=O)CC1 [Compound 14] | A | 3 | 4 |  |  | 
CC(=O)OC1=C(c2ccccc2C)C(=O)C2CCCCC12 (stereo not drawn) [Compound 19, 3-acetoxy-2-(2'-methylphenyl)-4,5,6,7,8,9-hexahydro-2-indenone] | A | 2 | 3 |  |  | 
CCCCCCCCCCCCCCCC(=O)OC1=C(c2cc(C)ccc2C)C(=O)C2CCCCC12 (stereo not drawn) [Compound 33] | A | 1 | 1 |  |  | 
CCCCC(CC)C(=O)OC1=C(c2ccc(Cl)cc2Cl)C(=O)CC1 (stereo not drawn) [Compound 5] | A | 2 | 1 |  |  | 
CCCCC(CC)C(=O)OC1=C(c2cc(C)ccc2C)C(=O)CC1 (stereo not drawn) [Compound 13] | A | 3 | 1 |  |  | 
Cc1ccccc1C1=C(OC(=O)C(C)(C)C)C2CCCCC2C1=O (stereo not drawn) [drawing 24] |  |  |  | 15 µg/mL (≈ 46 µM) | 3 | 5
O=C1CCC(OC(=O)c2ccccc2)=C1c1ccccc1Cl [Compound 2] | A | 2 | 4 |  |  | 
CCCCCCCCCC(=O)OC1=C(c2ccccc2C)C(=O)C2CCCCC12 (stereo not drawn) [Compound 23] | A | 3 | 5 |  |  | 
CCCCC(CC)C(=O)OC1=C(c2cc(C)ccc2C)C(=O)C(C)C1 (stereo not drawn) [Compound 17] | A | 3 | 3 |  |  | 
CCCCCCCCCC(=O)OC1=C(c2ccccc2C)C(=O)C2CCCCC12 (stereo not drawn) [drawing 15] |  |  |  | 2 µg/mL (≈ 5.04 µM) | 3 | 5
CCCCC(CC)C(=O)OC1=C(c2ccccc2C)C(=O)C2CCCCC12 (stereo not drawn) [Compound 21, 3-(2-Ethylhexanoyloxy)-2-(2'-methylphenyl)-4,5,6,7,8,9-hexahydro-2-indenone] | A | 2 | 3 |  |  | 
Cc1ccccc1C1=C(OC(=O)C(C)C)C2CCCCC2C1=O (stereo not drawn) [Compound 20] | A | 3 | 4 |  |  | 
CCCCC(CC)C(=O)OC1=C(c2ccccc2C)C(=O)CC1 (stereo not drawn) [drawing 21] |  |  |  | 220 µg/mL (≈ 700 µM) | 2 | 5
CCCCCCCCCC(=O)OC1=C(c2cc(C)ccc2C)C(=O)C2CCCCC12 (stereo not drawn) [drawing 19] |  |  |  | 25 µg/mL (≈ 60.9 µM) | 1 | 1
CCCCC(CC)C(=O)OC1=C(c2ccccc2C)C(=O)CC1 (stereo not drawn) [Compound 7] | A | 2 | 5 |  |  | 

SMILES | Miticidal, Adult [1] | Post-emergent Herbicidal, Cotton (Cotton) | Pre-emergent Herbicidal, Rye (Perennial rye grass; Table II) | LC50 [1] | Post Emergent Herbicidal, Cotton (Cotton) | Pre-emergent Herbicidal, Rye (Perennial rye grass; Table III)
CCCCC(CC)C(=O)OC1=C(c2ccc(C)cc2C)C(=O)CC1 (stereo not drawn) [Compound 9, 3-(2-ethylhexanoyloxy)-2-(2', 4'-dimethylphenyl)-2-cyclopentenone] | A | 1 | 5 |  |  | 
CC(=O)OC1=C(c2ccc(C)cc2C)C(=O)C2CCCCC12 (stereo not drawn) [Compound 25] | A | 3 | 5 |  |  | 
Cc1ccc(C2=C(OC(=O)c3ccccc3)C3CCCCC3C2=O)c(C)c1 (stereo not drawn) [Compound 27, 3-benzoyloxy-2-(2',4'-dimethylphenyl)-4,5,6,7,8,9-hexahydro-2-indenone] | A | 2 | 5 |  |  | 
CC(C)C(=O)OC1=C(c2ccc(Cl)cc2Cl)C(=O)CC1 [Compound 4] | B | 2 | 1 |  |  | 
CCCCC(CC)C(=O)OC1=C(c2ccccc2C)C(=O)c2ccccc21 (stereo not drawn) [reference compound] |  |  |  | 500 µg/mL (≈ 1380 µM) | 1 | 1
CC(=O)OC1=C(c2ccc(Cl)cc2Cl)C(=O)CC1 [Compound 3] | A | 2 | 2 |  |  | 
CCCCCCCCCCCCCCCC(=O)OC1=C(c2ccc(Cl)cc2Cl)C(=O)CC1 [Compound 6] | A | 1 | 1 |  |  | 
CCCCCCCCCCCCCCCC(=O)OC1=C(c2ccccc2C)C(=O)C2CCCCC12 (stereo not drawn) [Compound 24] | A | 2 | 4 |  |  | 
CCCCCCCCCCCCCCCC(=O)OC1=C(c2cc(C)ccc2C)C(=O)C(C)C1 (stereo not drawn) [Compound 18] | A | 2 | 4 |  |  | 
Cc1ccccc1C1=C(OC(=O)C(C)(C)C)C2CCCCC2C1=O (stereo not drawn) [Compound 22] | A | 3 | 5 |  |  | 
CCCCC(CC)C(=O)OC1=C(c2cc(C)ccc2C)C(=O)C2CCCCC12 (stereo not drawn) [Compound 30, 3-(2-ethylhexanoyloxy)-2-(2',5'-dimethylphenyl)-4,5,6,7,8,9-hexahydro-2-indenone] | A | 1 | 1 |  |  | 
CCCCCCCCCC(=O)OC1=C(c2cc(C)ccc2C)C(=O)C2CCCCC12 (stereo not drawn) [Compound 32] | A | 1 | 1 |  |  | 
CC(=O)OC1=C(c2cc(C)ccc2C)C(=O)C2CCCCC12 (stereo not drawn) [Compound 28] | A | 1 | 3 |  |  | 
CCCCCCCCCCCCCCCC(=O)OC1=C(c2ccccc2C)C(=O)c2ccccc21 [reference compound] |  |  |  | 500 µg/mL (≈ 1050 µM) | 1 | 1
CCCCCCCCCC(=O)OC1=C(c2cc(C)ccc2C)C(=O)c2ccccc21 [reference compound] |  |  |  | 500 µg/mL (≈ 1240 µM) | 1 | 1
